16 compounds from PubChem BioAssay AID256 (DTP/NCI, 2004) can be followed below.

The test relates to CD2F1 mice, L1210 leukemia ip, survival T/C. Briefly: NCI In Vivo Anticancer Drug Screen. Data for tumor model L1210 Leukemia (intraperitoneal) in CD2F1 (CDF1) mice. The conditions noted are these: higher = longer survival. Summed up: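 Vehicle-treated tumor-bearing mice served as controls (C) for compound-treated mice (T). Reported figure is T divided by C.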
[1] abbreviates: endpoint: mean survival time, dose: 100.0 mg/kg/injection, schedule: Q01DX001 (ip), vehicle: saline.
Setting [2] is: endpoint: mean survival time, dose: 200.0 mg/kg/injection, schedule: Q01DX001 (ip), vehicle: saline.
Where [3] appears, read: endpoint: mean survival time, dose: 400.0 mg/kg/injection, schedule: Q01DX001 (ip), vehicle: saline.
Where [4] appears, read: endpoint: mean survival time, dose: 100.0 mg/kg/injection, schedule: Q01DX009 (ip), vehicle: saline with Tween-80.
The mark [5] stands for this setting: endpoint: mean survival time, dose: 200.0 mg/kg/injection, schedule: Q01DX009 (ip), vehicle: saline with Tween-80.
Where [6] appears, read: endpoint: mean survival time, dose: 400.0 mg/kg/injection, schedule: Q01DX009 (ip), vehicle: saline with Tween-80.

Structures are written as SMILES. Several values for one entry are separate records, joined by “and”; a condition that tells them apart may be missing. Equal entries are not always repeated. Toxic doses and inconclusive results are not listed.

As to `CN(C)N=Nc1ccc(C(N)=O)cc1`, the T/C is, setting by setting: (endpoint: mean survival time, dose: 18.75 mg/kg/injection, schedule: Q01DX009 (ip), vehicle: Klucel (hydroxypropylcellulose) (HPC)) 112 % of control; (endpoint: mean survival time, dose: 150.0 mg/kg/injection, schedule: Q01DX009 (ip), vehicle: Klucel (hydroxypropylcellulose) (HPC)) 109 % of control; (endpoint: median survival time, dose: 12.5 mg/kg/injection, schedule: Q01DX005 (ip), vehicle: saline with Tween-80) 105 % of control; (endpoint: median survival time, dose: 25.0 mg/kg/injection, schedule: Q01DX005 (ip), vehicle: saline with Tween-80) 113 % of control; (endpoint: median survival time, dose: 36.0 mg/kg/injection, schedule: Q01DX005 (ip), vehicle: saline with Tween-80) 123 % of control and 110 % of control; (endpoint: median survival time, dose: 36.0 mg/kg/injection, schedule: Q01DX009 (ip), vehicle: saline with Tween-80) 116 % of control. Further, the T/C (endpoint: median survival time, dose: 60.0 mg/kg/injection, schedule: Q01DX005 (ip), vehicle: saline with Tween-80) was 113 % of control; the T/C (endpoint: median survival time, dose: 100.0 mg/kg/injection, schedule: Q01DX009 (ip), vehicle: saline with Tween-80) was 166 % of control; the T/C (endpoint: median survival time, dose: 167.0 mg/kg/injection, schedule: Q01DX005 (ip), vehicle: saline with Tween-80) was 157 % of control; the T/C (endpoint: median survival time, dose: 167.0 mg/kg/injection, schedule: Q01DX009 (ip), vehicle: saline with Tween-80) was 176 % of control; the T/C (endpoint: median survival time, dose: 278.0 mg/kg/injection, schedule: Q01DX005 (ip), vehicle: saline with Tween-80) was 96 % of control; the T/C (endpoint: median survival time, dose: 278.0 mg/kg/injection, schedule: Q01DX009 (ip), vehicle: saline with Tween-80) is 98 % of control.

Turning to `O=C(O)CS` (tested in a mixture with another compound), the T/C reads like this: (endpoint: mean survival time, dose: 12.5 mg/kg/injection, schedule: Q01DX009 (ip), vehicle: saline) 102 % of control; (endpoint: mean survival time, dose: 25.0 mg/kg/injection, schedule: Q01DX009 (ip), vehicle: saline) 93 % of control; (endpoint: mean survival time, dose: 100.0 mg/kg/injection, schedule: Q01DX009 (ip), vehicle: saline) 93 % of control.

With `CSc1nc(N)c2c(ncn2C2OC(CO)C(O)C2O)n1` (stereo not given), the T/C was 105 % of control under setting [1], 100 % of control under setting [2] and 97 % of control under setting [3].

For the compound `CC(=O)Nc1cc(CN2CCCCC2)c(O)c2ncccc12`, the T/C reads like this: (endpoint: mean survival time, dose: 75.0 mg/kg/injection, schedule: Q01DX001 (ip), vehicle: other) 102 % of control; (endpoint: mean survival time, dose: 150.0 mg/kg/injection, schedule: Q01DX001 (ip), vehicle: other) 102 % of control.

For the compound `CC1CCC(C(O)(C(=O)c2ccccc2)c2ccccc2)C(=O)C1` (stereo not given), the T/C under setting [4] was 100 % of control, the T/C under setting [5] was 98 % of control and the T/C under setting [6] was 98 % of control.

On to `COC(=O)C1CC[N-]CC1.COC(=O)C1CC[N-]CC1.[Cl][Pt+2][Cl]`, for which the T/C reads like this: under setting [4], 115 % of control; under setting [5], 114 % of control.

As to `O=C(NCc1ccccc1)C(=O)NCc1ccccc1`, the T/C runs as follows: (endpoint: mean survival time, dose: 100.0 mg/kg/injection, schedule: Q04DX002 (ip), vehicle: saline with Tween-80) 90 % of control; (endpoint: mean survival time, dose: 200.0 mg/kg/injection, schedule: Q04DX002 (ip), vehicle: saline with Tween-80) 87 % of control; (endpoint: mean survival time, dose: 400.0 mg/kg/injection, schedule: Q04DX002 (ip), vehicle: saline with Tween-80) 90 % of control.

For `COC(=O)c1cc(-c2ccc(Cl)cc2)nc2cc(Cl)c(OC)cc12`, the T/C was 92 % of control under setting [1] and 87 % of control under setting [2].

As to `O=C(NC1CCCCC1)OCC#CC#CCOC(=O)NC1CCCCC1`, the T/C is 94 % of control (endpoint: mean survival time, dose: 100.0 mg/kg/injection, schedule: Q04DX003 (ip), vehicle: Klucel (hydroxypropylcellulose) (HPC)); 96 % of control (endpoint: mean survival time, dose: 200.0 mg/kg/injection, schedule: Q04DX003 (ip), vehicle: Klucel (hydroxypropylcellulose) (HPC)); 100 % of control (endpoint: mean survival time, dose: 400.0 mg/kg/injection, schedule: Q04DX003 (ip), vehicle: Klucel (hydroxypropylcellulose) (HPC)).

As for `c1ccc(C2SCCCS2)cc1`, the T/C is 101 % of control (endpoint: mean survival time, dose: 100.0 mg/kg/injection, schedule: Q04DX003 (ip), vehicle: other); 97 % of control (endpoint: mean survival time, dose: 200.0 mg/kg/injection, schedule: Q04DX003 (ip), vehicle: other); 101 % of control (endpoint: mean survival time, dose: 400.0 mg/kg/injection, schedule: Q04DX003 (ip), vehicle: other).

For the compound `CC(C)c1ccc2c(c1)CC[C@H]1[C@](C)(C#N)CCC[C@]21C`, the T/C reads like this: under setting [4], 95 % of control; under setting [5], 94 % of control.

For `CCOC(C=O)OCC`, the T/C by setting is: under setting [1], 103 % of control; under setting [2], 97 % of control; under setting [3], 103 % of control.

In the case of `CC1(C)C=C(Cc2ccccc2)C(=O)c2ccccc21`, the T/C reads like this: under setting [4], 94 % of control; (endpoint: mean survival time, dose: 100.0 mg/kg/injection, schedule: Q04DX003 (ip), vehicle: saline with Tween-80) 96 % of control; under setting [5], 97 % of control; (endpoint: mean survival time, dose: 200.0 mg/kg/injection, schedule: Q04DX003 (ip), vehicle: saline with Tween-80) 100 % of control; under setting [6], 97 % of control; (endpoint: mean survival time, dose: 400.0 mg/kg/injection, schedule: Q04DX003 (ip), vehicle: saline with Tween-80) 97 % of control.

For the compound `CCC(Cc1ccccc1)C(=O)O` (stereo not given), the T/C (endpoint: mean survival time, dose: 100.0 mg/kg/injection, schedule: Q04DX003 (ip), vehicle: saline) is 108 % of control; the T/C (endpoint: mean survival time, dose: 200.0 mg/kg/injection, schedule: Q04DX003 (ip), vehicle: saline) was 97 % of control; the T/C (endpoint: mean survival time, dose: 400.0 mg/kg/injection, schedule: Q04DX003 (ip), vehicle: saline) is 97 % of control.

For the compound `N#Cc1c(Cl)cc(C2(O)C3C=CC2CC3)cc1Cl` (stereo not given), the T/C by setting is: (endpoint: median survival time, dose: 25.0 mg/kg/injection, schedule: Q04DX002 (ip), vehicle: saline with Tween-80) 112 % of control; (endpoint: median survival time, dose: 50.0 mg/kg/injection, schedule: Q04DX002 (ip), vehicle: saline with Tween-80) 100 % of control; (endpoint: median survival time, dose: 100.0 mg/kg/injection, schedule: Q04DX002 (ip), vehicle: saline with Tween-80) 100 % of control; (endpoint: median survival time, dose: 200.0 mg/kg/injection, schedule: Q04DX002 (ip), vehicle: saline with Tween-80) 112 % of control.

On to `OCC1OC(n2cc(I)c3c2ncn2nnnc32)C(O)C1O` (stereo not given), for which the T/C is, setting by setting: (endpoint: mean survival time, dose: 1.56 mg/kg/injection, schedule: Q01DX005 (ip), vehicle: water) 88 % of control; (endpoint: mean survival time, dose: 3.13 mg/kg/injection, schedule: Q01DX005 (ip), vehicle: water) 95 % of control; (endpoint: mean survival time, dose: 6.25 mg/kg/injection, schedule: Q01DX005 (ip), vehicle: water) 95 % of control; (endpoint: mean survival time, dose: 12.5 mg/kg/injection, schedule: Q01DX005 (ip), vehicle: water) 98 % of control; (endpoint: mean survival time, dose: 25.0 mg/kg/injection, schedule: Q01DX005 (ip), vehicle: water) 87 % of control and 97 % of control; (endpoint: mean survival time, dose: 50.0 mg/kg/injection, schedule: Q01DX005 (ip), vehicle: water) 97 % of control.
